# Results as given in patent US5246945A, “Piperidine derivatives” (Nisshin Flour Milling Co., Ltd., priority 1991, dated 1993).
# System: 5-HT3 receptors
# Assay: Antagonism of 5-HT at 5-HT3 receptors: inhibition of 5-HT-induced bradycardia (von Benzold Jarisch Reflex) in anesthesized rats
# Type: in vivo, rat
# Settings: 100 μg/kg, i.v. (intrajugular); 5-HT 30 μg/kg given 5 min. later; urethane-anesthesized rats; tested as hydrochloride except Example 9
# Protocol: The compounds prepared in the above examples were respectively tested for antagonism of 5-HT at 5-HT3 receptors.
# Administration of 5-HT (serotonin) to anesthesized rats via jugular vein induces temporary bradycardia (von Benzold Jarisch Reflex)(A.S. Paintal, Physiol. Rev., 53, 159-227 (1973)).
# Thus, rats were anesthesized with urethane (1 g/kg, i.p.) and recorded for blood pressure and heart rate from left femoral artery. Percent inhibition was calculated from bradycardia induced by 5-HT (30 μg/kg) given 5 min. following intrajugular administration of a compound of the invention, taking the bradycardia induced by the intrajugular administration of 5-HT.
# In this test, all of the test compounds were tested in the form of hydrochloride except for the compounds prepared in Example 9. Therefore, concentration of the test drug is expressed in terms of the concentration of the hydrochloride except for the compounds prepared in Example 9.
row,SMILES,% Inhibition (of bradycardia induced by 5-HT) [%]
1,"CC(OC(=O)c1nn(C)c2ccccc12)C1CCCCN1C (single isomer, unassigned) [1 (less polar isomer), 1-(1-Methyl-2-piperidyl)ethyl 1-methylindazole-3-carboxylate]",49
2,"COc1cc(N)ccc1C(=O)OC(C)C1CCCCN1C (single isomer, unassigned) [5 (more polar isomer), 1-(1-Methyl-2-piperidyl)ethyl 2-methoxy-4-aminobenzoate]",16
3,"COc1cc(N)c(Cl)cc1C(=O)OC(C)C1CCCCN1C (single isomer, unassigned) [7 (less polar isomer), (1-Methyl-Z-piperidyl)ethyl 2-methoxy-4 amino-5-chlorobenzoate]",50
4,"CN1CCCCC1COC(=O)c1nn(C)c2ccccc12 (stereo not shown) [Example 2, 1-Methyl-2-piperidylmethyl 1-methylindazole-3-carboxylate]",34
5,COc1ccc2ncc(C(=O)OCC3CCCCN3C)cc2c1 (stereo not shown) [Example 3],26
6,"COc1cc(N)c(Cl)cc1C(=O)OCC1CCCCN1C (stereo not shown) [Example 6, 1-Methyl-2-piperidylmethyl 2-methoxy-4-amino-5-chlorobenzoate]",76
7,"Cn1nc(C(=O)OCC2CCCC[N+]2(C)C)c2ccccc21 (stereo not shown) [Example 9, 1,1-Dimethyl-2-(1-methyl-3-indazolylcarboxymethyl)-piperidinium iodide]",58
